From article PMC7076013 (Scientific Reports, 2020)

Legend:
[1] = test system: COX-2-negative (HCT-116) human colon cancer cell line; conditions: cited from earlier work
[2] = test system: COX-2-overexpressing (HCA-7) human colon cancer cell line; conditions: cited from earlier work
A375, human melanoma = experiment: MTT cell viability, A375; type: cell-based; conditions: 48 h, MTT or CV
Protocol: Both melanoma and colon cancer are tumor types tightly connected with inflammation, while the expression of COX-2 in the selected cell lines was highly variable. Since a lot of discrepancies were found in the literature concerning the expression of this enzyme[5],[48]–[53], both COX-1 and COX-2 expression was analyzed by Western blot. […] The cells were treated with a wide range of doses of 4a–c, 5, and 6 for 48 h and cell viability was determined by MTT (3-(4,5-dimethylthiazol-2-yl)-2,5-diphenyltetrazolium bromide) and CV (crystal violet) assays. The obtained IC50 values were similar for both assays (Table 1).
Reagents were obtained from Sigma (St. Louis, MO) unless indicated otherwise. Annexin V - FITC (AnnV) was acquired from Biotium (Hayward, CA) and Apostat from R&D (R&D S ystems, Minneapolis, MN USA). […] After being detached b y tr ypsinization, cells were seeded in defined number as follows: 2.5 × 10^3 cells/well in 96-well plates for viability assessment and 2 × 10^4 cells/well in 24-well plates for flow cytometry. […]
Committee at IBISS (02- 09/1 6). Cells were counted and seeded in 96-well plates and incubat ed overnight. Before treatment, non- adherent cells were removed. Compounds 4a- c, 5 and 6 were dissolved in DMSO and stored at −20 °C for a m onth. Working solutions were freshl y prepared in 10% FCS-RPMI-1640. Controls were treated with culture medium containing the equivalent […]
3.2. Cell viability tests.
The number of viable cel ls in culture was estimated by the MTT (3-(4,5- dimethylthiazol- 2-yl ) - 2,5- diphenyltetrazolium bromide) and CV (crystal violet) tests. Cells were incubated in the presence of compounds 4a- c, 5 and 6 for 48 h, then the viability was measured as described.4 […]
The results were ex pressed as a p er centage of a v alue obtained for the untr eated control cells that was arbitrarily set to be 100%. A non- linear regression analysis of obtained results was done b y using Gr aphPad Prism software to calculat e IC50 values. […]

CS(=O)(=O)c1ccc(C2=C(c3ccccc3)C(=O)OC2)cc1 [Rofecoxib]
activity against HCT-116 [1]: inactive | activity against HCA-7 [2]: inactive | viability of A375 cells (A375, human melanoma): did not result in significantly decreased viability
